Reference: patent US8252737B2, “Antimicrobial peptides and methods of use” (priority 2004, dated 2012)
In brackets after ≈: the same amount, converted by molar mass. Read-outs that look alike come from different tables or passages of the source. Square brackets hold non-standard residues; d marks the D form. Peptide text beside a SMILES is read from it.

Legend:
[1] = Circular dichroism spectroscopy of helical structure (benign buffer and 50% TFE); assay type: physicochemical
Method: To determine the secondary structure of peptides in different environments, circular dichroism (CD) spectra of the peptide analogs were measured under physiologically related pH and ionic strength (100 mM KCl, 50 mM aq. PO4, pH 7 referred to as benign conditions) and also in 50% TFE to mimic the hydrophobic environment of the membrane. […] On the non-polar face, the native L-Val residue was critical in maintaining α-helical structure. […] Even the substitution with L-Ala, which is known to have the highest α-helical propensity of all 20 amino acids (34), could not stabilize the α-helical structure. […] It is noteworthy that, on the non-polar face, the magnitude of the helical content of L-peptides in benign buffer was related to the hydrophobicity of the substituting amino acids, i.e., NLL>NVL>NAL>NSL, NKL, again showing the importance of hydrophobicity on the non-polar face in maintaining the α-helical structure. […] However, whether L- or D-substitutions were made on the non-polar face, high helical structure could be induced by the hydrophobic environment of 50% TFE, a mimic of the membrane's hydrophobicity and α-helix inducing ability (Table 3).
To determine the secondary structure of the D-enantiomeric peptides in different environments, CD spectra of the peptide analogs were measured under benign conditions (100 mM KCl, 50 mM KH2PO4/K2HPO4, pH 7.4, referred to as KP buffer) and also in 50% trifluoroethanol (TFE) to mimic the hydrophobic environment of the membrane. […] However, in the presence of 50% TFE, all three L-peptides were fully folded α-helical structures with similar ellipticities and helicity (Table 4).
Characterization of Helical Structure—The mean residue molar ellipticities of peptides were determined by circular dichroism (CD) spectroscopy, using a Jasco J-720 spectropolarimeter (Jasco, Easton, Md.), at 25° C. under benign conditions (50 mM KH2PO4/K2HPO4/100 mM KCl, pH 7), as well as in the presence of an α-helix inducing solvent, 2,2,2-trifluoroethanol (TFE) (50 mM KH2PO4/K2HPO4/100 mM KCl, pH 7 buffer/50% TFE). A 10-fold dilution of a ˜500 μM stock solution of the peptide analogs was loaded into a 0.02 cm fused silica cell and its ellipticity scanned from 190 to 250 nm. The values of molar ellipticities of the peptide analogs at a wavelength of 222 nm were used to estimate the relative α-helicity of the peptides.

human erythrocytes = test: Hemolytic activity (MHC), Protocol A, 12 hours; conditions: for minimal hemolytic concentration (MHC): incubation for 12 hours at 37° C. (Tables 7 and 8)
Method: Measurement of Hemolytic Activity—Protocol A: Peptide samples were added to 1% human erythrocytes in phosphate buffered saline (0.08M NaCl; 0.043M Na2PO4; 0.011M KH2PO4) and reactions were incubated at 37° C. for 12 hours in microtiter plates. Peptide samples were diluted 2 fold in order to determine the concentration that produced no hemolysis. […] Hemoglobin release was determined spectrophotometrically at 562 nm. The hemolytic titer was the highest 2-fold dilution of the peptide that still caused release of hemoglobin from erythrocytes. The control for no release of hemoglobin was a sample of 1% erythrocytes without any peptide added. […] Peptide samples were diluted 2 fold in order to determine the concentration that produced no hemolysis. […] Hemoglobin release was determined spectrophotometrically at 570 nm. The hemolytic titer was the highest 2-fold dilution of the peptide that still caused release of hemoglobin from erythrocytes. The control for no release of hemoglobin was a sample of 1% erythrocytes without any peptide added.

gram-negative bacteria = test: MIC, microtiter dilution, Gram-negative bacteria (geometric mean of 6 strains); assay type: cell-based; conditions: for MIC (μg/ml) GM: geometric mean of MIC values from all 6 Gram-negative strains of Table 11; for MIC (μg/ml) Gram-negative: geometric mean MIC, Table 9; for geometric mean MIC against Gram-negative bacteria: 6 strains of Table 7
Method: The geometric mean MIC values from 6 microbial strains in this table were calculated to provide an overall evaluation of antimicrobial activity against gram-negative bacteria.
In Table 11, geometric mean MIC was calculated to provide an overall view of antimicrobial activity of the peptides against Gram-negative bacteria and was also used to calculate the therapeutic index.
(§1) Measurement of Antimicrobial Activity—Minimal inhibitory concentrations (MICs) were determined using a standard microtiter dilution method in LB (Luria-Bertani) no-salt medium (10 g of tryptone and 5 g of yeast extract per liter). Briefly, cells were grown overnight at 37° C. in LB and diluted in the same medium. […] Plates were incubated at 37° C. for 24 hours and MICs determined as the lowest peptide concentration that inhibited growth. Alternatively, minimal inhibitory concentrations were determined using a standard microtiter dilution method in a Mueller-Hinton (MH) medium. Briefly, cells were grown overnight at 37° C. in MH broth and diluted in the same medium. […] Plates were incubated at 37° C. for 24 hours and MICs determined as the lowest peptide concentration that inhibited growth. However, for MIC determination of Pseudomonas aeruginosa clinical isolates, brain heart infusion (BH1) medium was used instead of MH broth. In addition, the bacteria were diluted to a final inoculum of 1×10^6 colony-forming units/ml.

gram-positive bacteria = system: gram-positive bacteria
Method: as §1

[2] = 5° C., 100 mM KCl, 50 mM PO4 pH 7.4
[3] = 5° C., relative to D-V681 in 50% TFE
[4] = 5° C., benign buffer pH 7.4 containing 50% TFE
[5] = 5° C., pH 7.4 benign, relative to D-V681 in 50% TFE
[6] = 25° C., relative to NAL in 50% TFE
[7] = 25° C., benign buffer (100 mM KCl, 50 mM PO4 pH 7.0)
[8] = 25° C., benign buffer diluted 1:1 (v/v) with TFE
[9] = 25° C., benign buffer, relative to NAL in 50% TFE
[10] = minimal hemolytic concentration on human red blood cells (hRBC), Table 9

| Molecule | [θ]222 Benign [1, 2] [deg · cm^2 · dmol^−1] | % helix 50% TFE [1, 3] [%] | [θ]222 50% TFE [1, 4] [deg · cm^2 · dmol^−1] | % helix Benign [1, 5] [%] | % helix 50% TFE [1, 6] [%] | [θ]222 Benign [1, 7] | [θ]222 50% TFE [1, 8] | % helix Benign [1, 9] [%] | minimal hemolytic concentration (MHC) (human erythrocytes) [µg/mL] | MIC (μg/ml) GM (gram-negative bacteria) [µg/mL] | MHC (human erythrocytes; [10]) [µg/mL] | MIC (μg/ml) Gram-negative (gram-negative bacteria) [µg/mL] | MIC (μg/ml) Gram-positive (gram-positive bacteria) [µg/mL] | geometric mean MIC against Gram-negative bacteria (gram-negative bacteria) [µg/mL] | other results |
| --- | --- | --- | --- | --- | --- | --- | --- | --- | --- | --- | --- | --- | --- | --- | --- |
| CC[C@H](C)[C@H](NC(=O)[C@H](C)NC(=O)[C@H](CCCCN)NC(=O)[C@H](CC(C)C)NC(=O)[C@H](C)NC(=O)[C@@H](NC(=O)[C@H](Cc1c[nH]cn1)NC(=O)[C@H](CC(C)C)NC(=O)[C@@H](NC(=O)[C@@H](NC(=O)[C@H](CCCCN)NC(=O)[C@@H](C)NC(=O)[C@H](C)NC(=O)[C@H](CO)NC(=O)[C@H](CCCCN)NC(=O)[C@H](Cc1ccccc1)NC(=O)[C@@H](NC(=O)[C@H](CCCCN)NC(=O)[C@H](CC(C)C)NC(=O)[C@H](Cc1ccccc1)NC(=O)[C@H](CO)NC(=O)[C@H](CCCCN)NC(=O)[C@H](Cc1c[nH]c2ccccc12)NC(=O)[C@H](CCCCN)NC(C)=O)[C@@H](C)O)[C@@H](C)O)C(C)C)[C@@H](C)O)C(=O)N[C@@H](CO)C(=O)N[C@@H](CO)C(N)=O [NAD] | −4000 | 89 | −25000 | 14 | 85 | −2,850 deg · cm^2 · dmol^−1 | −24,650 deg · cm^2 · dmol^−1 | 10 | 250 | 3.1 (≈ 1.06 µM) | – | – | – | – | fold decrease in hemolytic activity compared to the L-diastereomer (human erythrocytes): 8; MIC (μg/ml) GM (gram-positive bacteria): 2.8 µg/mL (≈ 0.954 µM) |
| CC[C@H](C)[C@H](NC(=O)[C@H](C)NC(=O)[C@H](CCCCN)NC(=O)[C@H](CC(C)C)NC(=O)[C@H](C)NC(=O)[C@@H](NC(=O)[C@H](Cc1c[nH]cn1)NC(=O)[C@H](CC(C)C)NC(=O)[C@@H](NC(=O)[C@@H](NC(=O)[C@H](CCCCN)NC(=O)[C@H](C)NC(=O)[C@H](C)NC(=O)[C@H](CO)NC(=O)[C@H](CCCCN)NC(=O)[C@H](Cc1ccccc1)NC(=O)[C@@H](NC(=O)[C@H](CCCCN)NC(=O)[C@H](CC(C)C)NC(=O)[C@H](Cc1ccccc1)NC(=O)[C@H](CO)NC(=O)[C@H](CCCCN)NC(=O)[C@H](Cc1c[nH]c2ccccc12)NC(=O)[C@H](CCCCN)NC(C)=O)[C@@H](C)O)[C@@H](C)O)C(C)C)[C@@H](C)O)C(=O)N[C@@H](CO)C(=O)N[C@@H](CO)C(N)=O [NAL] | – | – | – | – | 100 | – | −28,950 deg · cm^2 · dmol^−1 | 12 | 31.2 | – | 31.2 | 3.8 (≈ 1.3 µM) | 4.5 (≈ 1.53 µM) | – | – |
| CC[C@H](C)[C@H](NC(=O)[C@H](C)NC(=O)[C@H](CCCCN)NC(=O)[C@H](CC(C)C)NC(=O)[C@H](C)NC(=O)[C@@H](NC(=O)[C@H](Cc1c[nH]cn1)NC(=O)[C@H](CC(C)C)NC(=O)[C@@H](NC(=O)[C@@H](NC(=O)[C@H](CCCCN)NC(=O)[C@@H](CCCCN)NC(=O)[C@H](C)NC(=O)[C@H](CO)NC(=O)[C@H](CCCCN)NC(=O)[C@H](Cc1ccccc1)NC(=O)[C@@H](NC(=O)[C@H](CCCCN)NC(=O)[C@H](CC(C)C)NC(=O)[C@H](Cc1ccccc1)NC(=O)[C@H](CO)NC(=O)[C@H](CCCCN)NC(=O)[C@H](Cc1c[nH]c2ccccc12)NC(=O)[C@H](CCCCN)NC(C)=O)[C@@H](C)O)[C@@H](C)O)C(C)C)[C@@H](C)O)C(=O)N[C@@H](CO)C(=O)N[C@@H](CO)C(N)=O [NKD] | – | – | – | – | 82 | −2,000 deg · cm^2 · dmol^−1 | −23,600 deg · cm^2 · dmol^−1 | 7 | – | – | >250.0 | 7.7 (≈ 2.57 µM) | – | – | MIC (μg/ml) Gram-positive (gram-positive bacteria; geometric mean MIC, Table 9): 18.7 µg/mL (≈ 6.25 µM) |
| CC[C@H](C)[C@H](NC(=O)[C@H](C)NC(=O)[C@H](CCCCN)NC(=O)[C@H](CC(C)C)NC(=O)[C@H](C)NC(=O)[C@@H](NC(=O)[C@H](Cc1cnc[nH]1)NC(=O)[C@H](CC(C)C)NC(=O)[C@@H](NC(=O)[C@@H](NC(=O)[C@H](CCCCN)NC(=O)[C@H](CCCCN)NC(=O)[C@H](C)NC(=O)[C@H](CO)NC(=O)[C@H](CCCCN)NC(=O)[C@H](Cc1ccccc1)NC(=O)[C@@H](NC(=O)[C@H](CCCCN)NC(=O)[C@H](CC(C)C)NC(=O)[C@H](Cc1ccccc1)NC(=O)[C@H](CO)NC(=O)[C@H](CCCCN)NC(=O)[C@H](Cc1c[nH]c2ccccc12)NC(=O)[C@H](CCCCN)NC(C)=O)[C@@H](C)O)[C@@H](C)O)C(C)C)[C@@H](C)O)C(=O)N[C@@H](CO)C(=O)N[C@@H](CO)C(N)=O [NKL] | −1400 | 96 | −27000 | 5 | 91 | −1,450 deg · cm^2 · dmol^−1 | −26,250 deg · cm^2 · dmol^−1 | 5 | – | 3.9 (≈ 1.3 µM) | – | – | – | 3.1 | fold decrease in hemolytic activity compared to V681 (human erythrocytes; 12 hours): > 32; fold improvement on the average MIC compared to V681 (gram-negative bacteria; gram-negative bacteria, geometric mean comparison, Table 7): 2.8; MIC (μg/ml) GM (gram-positive bacteria; geometric mean of MIC values from all 6 gram-positive strains of Table 12): 7.9 µg/mL (≈ 2.64 µM) |
| CC[C@H](C)[C@H](NC(=O)[C@H](C)NC(=O)[C@H](CCCCN)NC(=O)[C@H](CC(C)C)NC(=O)[C@H](C)NC(=O)[C@@H](NC(=O)[C@H](Cc1c[nH]cn1)NC(=O)[C@H](CC(C)C)NC(=O)[C@@H](NC(=O)[C@@H](NC(=O)[C@H](CCCCN)NC(=O)[C@@H](CO)NC(=O)[C@H](C)NC(=O)[C@H](CO)NC(=O)[C@H](CCCCN)NC(=O)[C@H](Cc1ccccc1)NC(=O)[C@@H](NC(=O)[C@H](CCCCN)NC(=O)[C@H](CC(C)C)NC(=O)[C@H](Cc1ccccc1)NC(=O)[C@H](CO)NC(=O)[C@H](CCCCN)NC(=O)[C@H](Cc1c[nH]c2ccccc12)NC(=O)[C@H](CCCCN)NC(C)=O)[C@@H](C)O)[C@@H](C)O)C(C)C)[C@@H](C)O)C(=O)N[C@@H](CO)C(=O)N[C@@H](CO)C(N)=O [NSD] (Ac-KWKSFLKTFKSA[dS]KTVLHTALKAISS-NH2) | – | – | – | – | 77 | −1,700 deg · cm^2 · dmol^−1 | −22,200 deg · cm^2 · dmol^−1 | 6 | – | – | – | 6.3 (≈ 2.14 µM) | 16.0 (≈ 5.42 µM) | – | MHC (human erythrocytes): >250.0 µg/mL |
| Ac-KWKSFLKTFKSALKTVLHTALKAISS-NH2 [NLL] | – | – | – | – | 98 | −20,600 deg · cm^2 · dmol^−1 | −28,250 deg · cm^2 · dmol^−1 | 71 | 7.8 | – | – | – | – | 12.7 | – |
